In US20160090556A1, “PRODUCTS COMPRISING MALODOR REDUCTION MATERIALS” (The Procter & Gamble Company, priority 2014, published 2016):
Like-named read-outs stand apart in the source and are kept apart here.

Tests used:
[1] = Probability of Ingredient Color Instability; type: physicochemical
[2] = Liquid dish neat product liquid-air partition coefficient; type: physicochemical; conditions: for Comment Code: Log of liquid dish neat product liquid-air partition coefficient: code letters K, L
[3] = class code letter within Comment Code

Row | Structure (SMILES) | Probability of Ingredient Color Instability (Comment Code E/F) [1] | Log of liquid dish neat product liquid-air partition coefficient (Comment Code K/L) [2] | Probability of Ingredient Color Instability (Comment Code E/F) [1, 3] | Log of liquid dish neat product liquid-air partition coefficient (Comment Code K/L) [2, 3] | further results
1 | C=C(C)C1CC=C(COC(C)=O)CC1 (stereo not shown) [Material 947] | F (Probability of Ingredient Color Instability<71%) | K (Log of liquid dish neat product liquid-air partition coefficient greater than or equal to −7) | – | – | –
2 | C=C(OCC)C1C(C)(C)CC(=O)CC1(C)C [Material 182] | – | – | F (Probability of Ingredient Color Instability<71%) | K (Log of liquid dish neat product liquid-air partition coefficient greater than or equal to −7) | –
3 | CC1=C2CCC3(C)OC3C2C(C)(C)CCC1 (stereo not shown) [Material 624] | F (Probability of Ingredient Color Instability<71%) | K (Log of liquid dish neat product liquid-air partition coefficient greater than or equal to −7) | – | – | Comment Code: Log of liquid dish neat product liquid-air partition coefficient [2]: K (Log of liquid dish neat product liquid-air partition coefficient greater than or equal to −7)
4 | O=C(Oc1ccccc1)c1ccccc1 [Material 965] | F (Probability of Ingredient Color Instability<71%) | K (Log of liquid dish neat product liquid-air partition coefficient greater than or equal to −7) | – | – | –
5 | C=CC(C)CC/C=C(\C)CCC=O (stereo not shown) [Material 358] | – | – | F (Probability of Ingredient Color Instability<71%) | K (Log of liquid dish neat product liquid-air partition coefficient greater than or equal to −7) | –
6 | CCCCCC1C(=O)CCC1CC(=O)OC (stereo not shown) [Material 1083] | F (Probability of Ingredient Color Instability<71%) | K (Log of liquid dish neat product liquid-air partition coefficient greater than or equal to −7) | – | – | –
7 | CCCCCCCCCCCCCC=O [Material 36] | – | – | F (Probability of Ingredient Color Instability<71%) | K (Log of liquid dish neat product liquid-air partition coefficient greater than or equal to −7) | –
8 | CC=CC(=O)OC(C)C1CCCCC1 (stereo not shown) [Material 475] | – | – | F (Probability of Ingredient Color Instability<71%) | K (Log of liquid dish neat product liquid-air partition coefficient greater than or equal to −7) | –
9 | CCCCCC1C(=O)CCC1CC(=O)OC (stereo not shown) [Material 113] | – | – | F (Probability of Ingredient Color Instability<71%) | K (Log of liquid dish neat product liquid-air partition coefficient greater than or equal to −7) | –
10 | COC(C)(C)CCCC(C)CC=O (stereo not shown) [Material 126] | – | – | F (Probability of Ingredient Color Instability<71%) | K (Log of liquid dish neat product liquid-air partition coefficient greater than or equal to −7) | –
11 | C/C=C/c1cc(OC)c(OC)cc1OC [Material 924] | F (Probability of Ingredient Color Instability<71%) | K (Log of liquid dish neat product liquid-air partition coefficient greater than or equal to −7) | – | – | –
12 | CC1=C2CC(C(C)(C)O)CCC2(C)CCC1 (stereo not shown) [Material 329] | – | – | F (Probability of Ingredient Color Instability<71%) | K (Log of liquid dish neat product liquid-air partition coefficient greater than or equal to −7) | Comment Code: Log of liquid dish neat product liquid-air partition coefficient [2]: K (Log of liquid dish neat product liquid-air partition coefficient greater than or equal to −7)
13 | CCCCCCCCCC=CC=O [Material 806] | F (Probability of Ingredient Color Instability<71%) | K (Log of liquid dish neat product liquid-air partition coefficient greater than or equal to −7) | – | – | –
14 | CCCCCCC(CO)C(C)=O (stereo not shown) [Material 106] | – | – | F (Probability of Ingredient Color Instability<71%) | K (Log of liquid dish neat product liquid-air partition coefficient greater than or equal to −7) | –
15 | N#CC(=C1CCCCC1)c1ccccc1 [Material 945] | F (Probability of Ingredient Color Instability<71%) | K (Log of liquid dish neat product liquid-air partition coefficient greater than or equal to −7) | – | – | –
16 | CC(C=O)Cc1ccc(C(C)C)cc1 (stereo not shown) [Material 478] | – | – | F (Probability of Ingredient Color Instability<71%) | K (Log of liquid dish neat product liquid-air partition coefficient greater than or equal to −7) | –
17 | CCCCCCCC/C=C\CC=O [Material 884] | F (Probability of Ingredient Color Instability<71%) | K (Log of liquid dish neat product liquid-air partition coefficient greater than or equal to −7) | – | – | –
18 | CC(C)=CCCC(C)(O)C1CC=C(C)CC1 (stereo not shown) [Material 718] | F (Probability of Ingredient Color Instability<71%) | K (Log of liquid dish neat product liquid-air partition coefficient greater than or equal to −7) | – | – | –
19 | CC1(O)CCOC2(CCCCC2)C1 (stereo not shown) [Material 16] | – | – | F (Probability of Ingredient Color Instability<71%) | K (Log of liquid dish neat product liquid-air partition coefficient greater than or equal to −7) | –
20 | CC1CC=CCCCCCCCC(=O)OCC1 (stereo not shown) [Material 52] | – | – | F (Probability of Ingredient Color Instability<71%) | K (Log of liquid dish neat product liquid-air partition coefficient greater than or equal to −7) | –

Row | Structure (SMILES) | Probability of Ingredient Color Instability (Comment Code E/F) [1] | Log of liquid dish neat product liquid-air partition coefficient (Comment Code K/L) [2] | Probability of Ingredient Color Instability (Comment Code E/F) [1, 3] | Log of liquid dish neat product liquid-air partition coefficient (Comment Code K/L) [2, 3] | further results
21 | CC(C)=CCCC1=CCC(C)(C=O)CC1 (stereo not shown) [Material 727] | F (Probability of Ingredient Color Instability<71%) | K (Log of liquid dish neat product liquid-air partition coefficient greater than or equal to −7) | – | – | –
22 | CC(CC=O)CCc1ccccc1 (stereo not shown) [Material 807] | F (Probability of Ingredient Color Instability<71%) | K (Log of liquid dish neat product liquid-air partition coefficient greater than or equal to −7) | – | – | –
23 | CCCCCCC/C=C\CCC=O [Material 1045] | F (Probability of Ingredient Color Instability<71%) | K (Log of liquid dish neat product liquid-air partition coefficient greater than or equal to −7) | – | – | –
24 | CC1=CCC(C(C)CC=O)CC1 (stereo not shown) [Material 159] | – | – | F (Probability of Ingredient Color Instability<71%) | K (Log of liquid dish neat product liquid-air partition coefficient greater than or equal to −7) | –
25 | CCCCCCCCCC(C)C=O (stereo not shown) [Material 103] | – | – | F (Probability of Ingredient Color Instability<71%) | K (Log of liquid dish neat product liquid-air partition coefficient greater than or equal to −7) | –
26 | CC1(C)C2CC=C(CCC=O)C1C2 (stereo not shown) [Material 781] | F (Probability of Ingredient Color Instability<71%) | K (Log of liquid dish neat product liquid-air partition coefficient greater than or equal to −7) | – | – | –
27 | CC1=C(CCC(C)C=O)C(C)(C)CCC1 (stereo not shown) [Material 560] | – | – | F (Probability of Ingredient Color Instability<71%) | K (Log of liquid dish neat product liquid-air partition coefficient greater than or equal to −7) | –
28 | CC(C)c1ccc(CCC=O)cc1 [Material 826] | F (Probability of Ingredient Color Instability<71%) | K (Log of liquid dish neat product liquid-air partition coefficient greater than or equal to −7) | – | – | –
29 | CC1(C)C2CC=C(C=O)C1C2 (stereo not shown) [Material 70] | – | – | F (Probability of Ingredient Color Instability<71%) | – | –
30 | COC(=O)c1ccccc1N=CC(C)Cc1ccc(C(C)(C)C)cc1 (stereo not shown) [Material 1121] | – | – | – | – | Comment Code: Probability of Ingredient Color Instability ([1]; codes E/F of the Comment Code, Table 1): F (Probability of Ingredient Color Instability<71%)
31 | CC1(C)C2CC=C(CC=O)C1C2 (stereo not shown) [Material 973] | F (Probability of Ingredient Color Instability<71%) | – | – | – | –
32 | CCC(=O)OCC(=O)OC(C)C1CCCC(C)(C)C1 (stereo not shown) [Material 1009] | F (Probability of Ingredient Color Instability<71%) | – | – | – | –
33 | O=C1CCCCCCCCCCC(=O)OCCO1 [Material 485] | – | – | F (Probability of Ingredient Color Instability<71%) | – | –
34 | CCCCCCC1CCCC1=O (stereo not shown) [Material 189] | – | – | F (Probability of Ingredient Color Instability<71%) | – | –
35 | C=CC(C)(O)CCC=C(C)CCC=C(C)CCC=C(C)C (stereo not shown) [Material 303] | – | – | F (Probability of Ingredient Color Instability<71%) | – | –
36 | CC1COC(C)(c2ccc3c(c2)C(C)(C)CCC3(C)C)O1 (stereo not shown) [Material 2] | – | – | F (Probability of Ingredient Color Instability<71%) | – | –
37 | CC1=CC(C)C(C=O)C(C)C1 (stereo not shown) [Material 218] | – | – | F (Probability of Ingredient Color Instability<71%) | – | –
38 | COc1ccc(COC(=O)Cc2ccccc2)cc1 [Material 663] | F (Probability of Ingredient Color Instability<71%) | – | – | – | –
39 | C=CC(C)(CCC=C(C)C)OC(=O)c1ccccc1 (stereo not shown) [Material 152] | – | – | F (Probability of Ingredient Color Instability<71%) | – | –
40 | C=CC(C)(CCC=C(C)C)OC(=O)c1ccccc1N (stereo not shown) [Material 153] | – | – | F (Probability of Ingredient Color Instability<71%) | – | –
